Results from patent US20100062078A1, “PHARMACEUTICAL COMPOSITION FOR TREATING CANCER AND THE SIGNALING PATHWAY THEREOF” (priority 2008, published 2010).

Key:
MDAH-2774 [1] = assay: XTT cell proliferation assay (cytotoxicity); type: cell-based, human; settings: Homo sapiens
Description: (§1) Cells were seeded at 7×10^3 per well in 96-well culture plates before treatment with different concentrations of protoapigenone for 12, 24 and/or 48 hours. Next, the cytotoxicity of protoapigenone was determined using XTT cell proliferation assay (Sigma, St. Louis, Mo.). The absorbance of wavelength at 490 nm (OD490) and 650 nm (OD650) were determined respectively by enzyme-linked immunosorbent assay (ELISA) reader, and 50% of inhibitory concentration (IC50) was calculated by the value of OD490-OD650. In addition, in order to evaluate the long-term effect, the cells were treated with different concentration of protoapigenone for 3 hours, then were incubated with fresh medium for 14 days so as to form colonies. Finally, the cells were stained with crystal violet and were observed under the microscope.

[2] = XTT cell proliferation assay (cytotoxicity); type: cell-based
Description: as §1

C33A = assay: XTT cell proliferation assay (cytotoxicity); type: cell-based; settings: Homo sapiens, C-33-A; cervical cancer cell line C33A
Description: as §1

HeLa = assay: XTT cell proliferation assay (cytotoxicity); type: cell-based; settings: Homo sapiens; cervical cancer cell line HeLa
Description: as §1

MDA-MB-468 = assay: XTT cell proliferation assay (cytotoxicity); type: cell-based; settings: Homo sapiens; breast cancer cell line MDA-MB-468
Description: as §1

SKOV3 [3] = assay: XTT cell proliferation assay (cytotoxicity); type: cell-based; settings: Homo sapiens, SK-OV-3; ovarian cancer cell line SKOV3
Description: as §1

T47D = assay: XTT cell proliferation assay (cytotoxicity); type: cell-based; settings: Homo sapiens; breast cancer cell line T47D
Description: as §1

[4] = test system: MDAH-2774 human ovarian cancer cells; assay: Nude mice xenograft model, tumor growth; type: in vivo; settings: low dose (0.069 μM/g) and high dose (0.69 μM/g) i.p. every other day, 7-week treatment
Description: (§2) MDAH-2774 human ovarian cancer cells of 2×10^6 (or LNCap prostate cancer cells of 1×10^6) in 0.1 ml PBS were injected subcutaneously at the right flank of 6-week-old female nude mice (Foxnlun/Foxulun). When tumors became visible (approximately 3×3 mm in size), the mice were randomly grouped and treated intraperitoneally with protoapigenone or vehicle every other day. […] Tumor size and body weight were measured twice a week using calipers, and their tumor volumes were calculated according to a standard formula: width^2×length/2. After treatment with protoapigenone for 5 weeks, the mice xenografted with LNCap cells were sacrificed by deep anesthesia, and the blood sampling by cardiac aspiration was done immediately after anesthesia. Complete blood count of the nude mice blood was determined by Sysmex XE-2100 (TOA Medical Electronics, Kobe, Japan), and the plasma blood urea nitrogen (BUN), creatine (Cr), asparatate aminotransferase (AST), and alanine aminotransferase (ALT) levels were determined by Beckman LX20 (Beckman-Coulter, U.S.A.)

[5] = Body weight, complete blood count and biochemical profile of MDAH-2774-xenografted nude mice; type: in vivo; settings: for Creatine / Got (glutamic-oxaloacetic transaminase) / Gpt (glutamic-pyruvic transaminase) / HCT (hematocrit) / MCV (mean corpuscular volume) / PLT / RBC / WBC / Body weight: MDAH-2774 xenograft
[6] = Body weight, complete blood count and biochemical profile of LNCap-xenografted nude mice; type: in vivo; settings: for BUN / Creatine / Got (glutamic-oxaloacetic transaminase) / Gpt (glutamic-pyruvic transaminase) / MCV (mean corpuscular volume) / RBC / WBC / Body weight: LNCap xenograft
Description: as §2

MDAH-2774 [7] = assay: Cell cycle and sub-G1 analysis (PI flow cytometry); type: cell-based, human; settings: MDAH-2774, 24 hours
Description: (§3) The ovarian cancer cells and the prostate cancer cells respectively were treated with protoapigenone at different concentrations (0, 2.5, 5 and 10 μM) for 24 hours and 6 hours (or 12 hours). These cells were harvested by trypsin and fixed with 70% ethanol for 1 hour, washed with phosphate buffered saline (PBS) twice, and resuspended in propidium iodide (PI)/RNase A solution for 30 minutes. In accordance with the mechanism of DNA stained with propidium iodide, the cell cycle and sub-G1 distribution were detected by the FACScan flow cytometry (Becton Dickinson, San Jose, Calif.), and data analysis was done with CellQuest software (BD Bioscience).

SKOV3 [8] = assay: Cell cycle and sub-G1 analysis (PI flow cytometry); type: cell-based, human; settings: SKOV3, 24 hours
Description: as §3

LNCap = assay: TUNEL assay; type: cell-based, human; settings: LNCap, 2.5, 5 and 10 μM, 12 or 24 hours
Description: TUNEL assay is performed to detect whether cellular DNA is fragmented. The prostate cancer cells were treated with protoapigenone at various concentrations (2.5, 5 and 10 μM) for 12 or 24 hours, then were stained with TUNEL using the DeadEnd Colorimetric TUNEL system (Promega, Madison, Wis.). In brief, the prostate cancer cells were fixed with 4% paraformaldehyde for 30 minutes after protoapigenone treatment. Next, the fixed cells were incubated with digoxigenin-conjugated dUTP and nucleotide mixture in a recombinant terminal deoxynucleotide transferase-catalyzed reaction in the humidified atmosphere at 37° C. Subsequently, they were immersed in the stop buffer for 15 minutes at 37° C. The Cells were washed with PBS, then were incubated in DAB solutions for 15 minutes in dark. The stained cells were observed under the microscope. The percentage of TUNEL-positive cells were counted in 1000 cells, and the apoptosis index in the later period was calculated.

SMILES: O=C1C=CC(O)(c2cc(=O)c3c(O)cc(O)cc3o2)C=C1 [protoapigenone]
- inhibition at 1 µM (MDAH-2774 [1]; MDAH-2774, 1 μM protoapigenone, read-out: inhibition of cell growth): 25%
- inhibition at 2.5 µM (MDAH-2774 [1]; MDAH-2774, 2.5 μM protoapigenone, read-out: inhibition of cell growth): 53.4%
- IC50 (MDAH-2774 [1]; ovarian cancer cell line MDAH-2774, means ± SD of three independent experiments): 0.69 ± 0.92 µM
- IC50 ([2]; HOSE 6-3 immortalized ovarian epithelial cells, immortalized human ovarian epithelial cells HOSE 6-3): 8.98 ± 0.33 µM
- IC50 ([2]; HOSE 11-12 immortalized ovarian epithelial cells, immortalized human ovarian epithelial cells HOSE 11-12): 10.1 ± 0.53 µM
- IC50 ([2]; MCF-10A immortalized breast epithelial cells, immortalized human breast epithelial cell MCF-10A): 33.6 ± 0.53 µM
- IC50 (C33A): 4.69 ± 0.21 µM
- IC50 (HeLa): 3.66 ± 0.61 µM
- IC50 (MDA-MB-468): 3.33 ± 1.25 µM
- IC50 (SKOV3 [3]): 0.78 ± 0.28 µM
- IC50 (T47D): 5.13 ± 0.23 µM
- tumor growth of MDAH-2774 cells vs PBS control [4]: significantly suppressed
- impairment of hematopoiesis, liver function, or renal function ([5]; MDAH-2774-xenografted nude mice, intraperitoneal injection, 7 weeks): no significant impairment
- Creatine ([5]; high dose, 7 weeks): 0.5 ± 0.0 mg/dL
- Got (glutamic-oxaloacetic transaminase) ([5]; high dose, 7 weeks): 148.2 ± 59.3 U/L
- Gpt (glutamic-pyruvic transaminase) ([5]; high dose, 7 weeks): 52.0 ± 17.6 U/L
- HCT (hematocrit) ([5]; high dose, 7 weeks): 46.1 ± 1.8%
- MCV (mean corpuscular volume) ([5]; high dose, 7 weeks): 50.9 ± 0.9 fL
- PLT ([5]; high dose, 7 weeks): 916.3 ± 100.5 10 × 3/μl
- RBC ([5]; high dose, 7 weeks): 9.1 ± 0.3 10^6/µL
- WBC ([5]; high dose, 7 weeks): 2.0 ± 0.9 10 × 3/μl
- Body weight ([5]; high dose, after treatment (7 weeks)): 19.8 ± 1.1 g
- Body weight ([5]; high dose, before treatment): 19.6 ± 0.8 g
- Creatine ([5]; low dose, 7 weeks): 0.5 ± 0.0 mg/dL
- Got (glutamic-oxaloacetic transaminase) ([5]; low dose, 7 weeks): 119.5 ± 45.5 U/L
- Gpt (glutamic-pyruvic transaminase) ([5]; low dose, 7 weeks): 46.3 ± 16.7 U/L
- HCT (hematocrit) ([5]; low dose, 7 weeks): 43.5 ± 3.6%
- MCV (mean corpuscular volume) ([5]; low dose, 7 weeks): 56.2 ± 8.9 fL
- PLT ([5]; low dose, 7 weeks): 1094.5 ± 124.9 10 × 3/μl
- RBC ([5]; low dose, 7 weeks): 7.8 ± 1.4 10^6/µL
- WBC ([5]; low dose, 7 weeks): 2.6 ± 1.2 10 × 3/μl
- Body weight ([5]; low dose, after treatment (7 weeks)): 19.4 ± 0.1 g
- Body weight ([5]; low dose, before treatment): 19.6 ± 0.6 g
- BUN ([6]; high dose, 5 weeks): 24.8 ± 9.0 mg/dL
- Creatine ([6]; high dose, 5 weeks): 0.48 ± 0.10 mg/dL
- Got (glutamic-oxaloacetic transaminase) ([6]; high dose, 5 weeks): 630.7 ± 165.5 U/L
- Gpt (glutamic-pyruvic transaminase) ([6]; high dose, 5 weeks): 137.3 ± 55.8 U/L
- MCV (mean corpuscular volume) ([6]; high dose, 5 weeks): 47.7 ± 0.9 fL
- RBC ([6]; high dose, 5 weeks): 7.3 ± 0.7 10^6/µL
- WBC ([6]; high dose, 5 weeks): 2.7 ± 1.0 10 × 3/μl
- Body weight ([6]; high dose, after treatment (5 weeks)): 13.5 ± 0.6 g
- Body weight ([6]; high dose, before treatment): 11.5 ± 0.8 g
- BUN ([6]; low dose, 5 weeks): 23.9 ± 3.2 mg/dL
- Creatine ([6]; low dose, 5 weeks): 0.43 ± 0.05 mg/dL
- Got (glutamic-oxaloacetic transaminase) ([6]; low dose, 5 weeks): 520.5 ± 169.9 U/L
- Gpt (glutamic-pyruvic transaminase) ([6]; low dose, 5 weeks): 130.0 ± 119.9 U/L
- MCV (mean corpuscular volume) ([6]; low dose, 5 weeks): 46.8 ± 0.8 fL
- RBC ([6]; low dose, 5 weeks): 7.3 ± 0.6 10^6/µL
- WBC ([6]; low dose, 5 weeks): 2.3 ± 0.7 10 × 3/μl
- Body weight ([6]; low dose, after treatment (5 weeks)): 13.6 ± 1.2 g
- Body weight ([6]; low dose, before treatment): 11.8 ± 0.4 g
- body weight, control vs protoapigenone-treated group ([6]; LNCap-xenografted nude mice, 5 weeks): no significant difference
- impairment of hematopoiesis, liver function, or renal function ([6]; LNCap-xenografted nude mice, intraperitoneal injection, 5 weeks): No significant impairment
- apoptotic sub-G1 peak (MDAH-2774 [7]): increases the apoptotic sub-G1 peak
- cell cycle distribution (MDAH-2774 [7]; various concentrations): enter into S and G2/M phases
- apoptotic sub-G1 peak (SKOV3 [8]): increases the apoptotic sub-G1 peak
- cell cycle distribution (SKOV3 [8]; various concentrations): enter into S and G2/M phases
- ratio of TUNEL positive cells (LNCap): increased along with time and the increased protoapigenone concentrations
